The source of these data is patent US20200165194A1, “ADDITIVE COMPOSITION FOR CULTURE MEDIUM, ADDITIVE COMPOUND FOR CULTURE MEDIUM, AND METHOD FOR CULTURE OF CELLS OR TISSUE USING SAME” (NISSAN CHEMICAL CORPORATION, priority 2017, published 2020).

SMILES strings stand for the structures.

The assay has as its system mouse small intestinal organoid (Crypt). Kind of assay: Small intestine organoid formation in Matrigel (Experimental Example 4). It counts as cell-based. The conditions noted are these: 5 μM, 7 days. The protocol:
About 20 cm of the mouse small intestine was excised, and the adipose tissue and vascular tissue were removed on ice. The contents were sufficiently washed with PBS, cut open with scissors, and fragmented to about 2 mm. They were washed 20 times with 15 mL of PBS and the supernatant was removed. 25 mL of Gentle Cell Dissociation Reagent (manufactured by STEMCELL) was added, and the mixture was incubated at room temperature for 15 min while stirring at 20 rpm. The supernatant was removed, 10 mL of cold 0.1% BSA/PBS was added to the precipitate, and pipetting was performed three times. The supernatant was filtered with a 70 μm cell strainer (manufactured by BD Bioscience), and the filtrate was collected. Similarly, addition of 0.1% BSA/PBS to the remaining precipitate, pipetting, and filtration were repeated three times, and thus series of the four filtrates were prepared. Each filtrate was centrifuged at 290 g for 5 min at 4° C. After removing the supernatant, the cells were resuspended in 10 mL of cold 0.1% BSA/PBS and centrifuged at 200 g for 3 min at 4° C. The supernatant was removed, 10 mL of DMEM/F12 (manufactured by Wako Pure Chemical Industries, Ltd.) was added and the cells were suspended. 1 mL was separated and observed under a microscope. A filtrate having a sufficient intestinal fragment (Crypt) was selected, and the number of Crypt was counted using a hemocytometer. Cold Matrigel (registered trade mark) Matrix GFR(manufactured by Corning) in an equal amount to the cell suspension was added, mixed, and quickly dispensed into a 24-well plate warmed to 37° C. at 500 crypts/[…]/well. The plate was allowed to stand at 37° C. for 10 min to complete gelation. […] As a control, a well with no addition of the compound was prepared. After culturing for 7 days, the number and diameter of the formed small intestinal organoids were measured under a microscope, and the comparison results with no addition (control) are shown in the ninth table.

Regarding `CCC(=NNC(=O)C(CC)Nc1ccccc1)c1ccc(O)c(C)c1O` (stereo not drawn) [k-1:H-7], the “organoid diameter (μm)” value (control 130 ± 18) was 153 ± 21 μm. Besides, the “organoid number (relative value)” value (control = 1) came out at 2.5. Besides, the “organoid formation (in words)” value (mouse small intestinal organoid culture) is listed as “promotes organoid formation”.
